Test results reported in paper PMC9569420 (Communications Biology, 2022).

Key:
[1] = molecular target: T1, MAPKAPK2 (Homo sapiens, UniProt P49137); assay: HotSpot kinase assay; type: biochemical; settings: read-out: % Enzyme Activity (relative to DMSO controls)
T1 construct: purchased Reaction Biology Corporation

[2] = molecular target: T2, MLK2/MAP3K10 (Homo sapiens, UniProt Q02779); assay: HotSpot kinase assay; type: biochemical; settings: read-out: % Enzyme Activity (relative to DMSO controls)
T2 construct: purchased Reaction Biology Corporation

[3] = molecular target: T3, MARK4 (Homo sapiens, UniProt Q96L34); assay: HotSpot kinase assay; type: biochemical; settings: read-out: % Enzyme Activity (relative to DMSO controls)
T3 construct: purchased Reaction Biology Corporation

[4] = molecular target: T4, EPHB2 (Homo sapiens, UniProt P29323); assay: HotSpot kinase assay; type: biochemical; settings: read-out: % Enzyme Activity (relative to DMSO controls)
T4 construct: purchased Reaction Biology Corporation

[5] = molecular target: T5, IKKb/IKBKB (Homo sapiens, UniProt O14920); assay: HotSpot kinase assay; type: biochemical; settings: read-out: % Enzyme Activity (relative to DMSO controls)
T5 construct: purchased Reaction Biology Corporation

[6] = molecular target: T6, GRK6 (Homo sapiens, UniProt P43250); assay: HotSpot kinase assay; type: biochemical; settings: read-out: % Enzyme Activity (relative to DMSO controls)
T6 construct: purchased Reaction Biology Corporation

[7] = molecular target: T7, CAMK1g (Homo sapiens, UniProt Q96NX5); assay: HotSpot kinase assay; type: biochemical; settings: read-out: % Enzyme Activity (relative to DMSO controls)
T7 construct: purchased Reaction Biology Corporation
T7 sequence (Q96NX5 whole entry): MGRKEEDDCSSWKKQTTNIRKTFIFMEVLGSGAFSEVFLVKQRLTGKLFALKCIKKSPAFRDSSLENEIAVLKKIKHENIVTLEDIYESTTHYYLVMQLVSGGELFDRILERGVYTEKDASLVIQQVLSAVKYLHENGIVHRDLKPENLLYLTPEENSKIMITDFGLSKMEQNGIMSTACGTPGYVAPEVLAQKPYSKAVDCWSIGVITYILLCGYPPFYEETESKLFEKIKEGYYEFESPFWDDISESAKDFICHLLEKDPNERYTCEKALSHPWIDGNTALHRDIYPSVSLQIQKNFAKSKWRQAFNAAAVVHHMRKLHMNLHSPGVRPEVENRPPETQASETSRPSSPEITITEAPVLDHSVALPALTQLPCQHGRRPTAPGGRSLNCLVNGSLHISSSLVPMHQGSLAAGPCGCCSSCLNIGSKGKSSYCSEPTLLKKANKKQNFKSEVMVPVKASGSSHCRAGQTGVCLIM

[8] = molecular target: T8, CAMK2b (Homo sapiens, UniProt Q13554); assay: HotSpot kinase assay; type: biochemical; settings: read-out: % Enzyme Activity (relative to DMSO controls)
T8 construct: purchased Reaction Biology Corporation

[9] = molecular target: T9, FLT4/VEGFR3 (Homo sapiens, UniProt P35916); assay: HotSpot kinase assay; type: biochemical; settings: read-out: % Enzyme Activity (relative to DMSO controls)
T9 construct: purchased Reaction Biology Corporation

[10] = molecular target: T10, P38d/MAPK13 (Homo sapiens, UniProt O15264); assay: HotSpot kinase assay; type: biochemical; settings: read-out: % Enzyme Activity (relative to DMSO controls)
T10 construct: purchased Reaction Biology Corporation

[11] = molecular target: T11, EPHA5 (Homo sapiens, UniProt P54756); assay: HotSpot kinase assay; type: biochemical; settings: read-out: % Enzyme Activity (relative to DMSO controls)
T11 construct: purchased Reaction Biology Corporation

[12] = molecular target: T12, PKCepsilon (Homo sapiens, UniProt Q02156); assay: HotSpot kinase assay; type: biochemical; settings: read-out: % Enzyme Activity (relative to DMSO controls)
T12 construct: purchased Reaction Biology Corporation

[13] = molecular target: T13, TIE2/TEK (Homo sapiens, UniProt Q02763); assay: HotSpot kinase assay; type: biochemical; settings: read-out: % Enzyme Activity (relative to DMSO controls)
T13 construct: purchased Reaction Biology Corporation

[14] = molecular target: T14, ALK6/BMPR1B (Homo sapiens, UniProt O00238); assay: HotSpot kinase assay; type: biochemical; settings: read-out: % Enzyme Activity (relative to DMSO controls)
T14 construct: purchased Reaction Biology Corporation

[15] = molecular target: T15, PLK1 (Homo sapiens, UniProt P53350); assay: HotSpot kinase assay; type: biochemical; settings: read-out: % Enzyme Activity (relative to DMSO controls)
T15 construct: purchased Reaction Biology Corporation

[16] = molecular target: T16, STK39/STLK3 (Homo sapiens, UniProt Q9UEW8); assay: HotSpot kinase assay; type: biochemical; settings: read-out: % Enzyme Activity (relative to DMSO controls)
T16 construct: purchased Reaction Biology Corporation

[17] = molecular target: T17, IR (Homo sapiens, UniProt P06213); assay: biochemical
T17 construct: purchased Reaction Biology Corporation
T17 sequence (P06213 980-1382 limits assumed): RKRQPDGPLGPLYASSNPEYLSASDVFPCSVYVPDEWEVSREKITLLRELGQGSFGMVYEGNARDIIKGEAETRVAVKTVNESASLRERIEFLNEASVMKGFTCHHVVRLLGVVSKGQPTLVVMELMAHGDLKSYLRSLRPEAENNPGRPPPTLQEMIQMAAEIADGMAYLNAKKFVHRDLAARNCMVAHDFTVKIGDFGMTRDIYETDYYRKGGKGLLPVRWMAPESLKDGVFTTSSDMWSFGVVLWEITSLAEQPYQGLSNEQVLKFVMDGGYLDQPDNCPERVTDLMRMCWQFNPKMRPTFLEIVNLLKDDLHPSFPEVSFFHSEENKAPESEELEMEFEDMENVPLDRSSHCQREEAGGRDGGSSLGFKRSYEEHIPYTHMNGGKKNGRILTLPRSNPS

[18] = molecular target: T18, ROS/ROS1 (Homo sapiens, UniProt P08922); assay: HotSpot kinase assay; type: biochemical; settings: read-out: % Enzyme Activity (relative to DMSO controls)
T18 construct: purchased Reaction Biology Corporation
T18 sequence (P08922 28-2347): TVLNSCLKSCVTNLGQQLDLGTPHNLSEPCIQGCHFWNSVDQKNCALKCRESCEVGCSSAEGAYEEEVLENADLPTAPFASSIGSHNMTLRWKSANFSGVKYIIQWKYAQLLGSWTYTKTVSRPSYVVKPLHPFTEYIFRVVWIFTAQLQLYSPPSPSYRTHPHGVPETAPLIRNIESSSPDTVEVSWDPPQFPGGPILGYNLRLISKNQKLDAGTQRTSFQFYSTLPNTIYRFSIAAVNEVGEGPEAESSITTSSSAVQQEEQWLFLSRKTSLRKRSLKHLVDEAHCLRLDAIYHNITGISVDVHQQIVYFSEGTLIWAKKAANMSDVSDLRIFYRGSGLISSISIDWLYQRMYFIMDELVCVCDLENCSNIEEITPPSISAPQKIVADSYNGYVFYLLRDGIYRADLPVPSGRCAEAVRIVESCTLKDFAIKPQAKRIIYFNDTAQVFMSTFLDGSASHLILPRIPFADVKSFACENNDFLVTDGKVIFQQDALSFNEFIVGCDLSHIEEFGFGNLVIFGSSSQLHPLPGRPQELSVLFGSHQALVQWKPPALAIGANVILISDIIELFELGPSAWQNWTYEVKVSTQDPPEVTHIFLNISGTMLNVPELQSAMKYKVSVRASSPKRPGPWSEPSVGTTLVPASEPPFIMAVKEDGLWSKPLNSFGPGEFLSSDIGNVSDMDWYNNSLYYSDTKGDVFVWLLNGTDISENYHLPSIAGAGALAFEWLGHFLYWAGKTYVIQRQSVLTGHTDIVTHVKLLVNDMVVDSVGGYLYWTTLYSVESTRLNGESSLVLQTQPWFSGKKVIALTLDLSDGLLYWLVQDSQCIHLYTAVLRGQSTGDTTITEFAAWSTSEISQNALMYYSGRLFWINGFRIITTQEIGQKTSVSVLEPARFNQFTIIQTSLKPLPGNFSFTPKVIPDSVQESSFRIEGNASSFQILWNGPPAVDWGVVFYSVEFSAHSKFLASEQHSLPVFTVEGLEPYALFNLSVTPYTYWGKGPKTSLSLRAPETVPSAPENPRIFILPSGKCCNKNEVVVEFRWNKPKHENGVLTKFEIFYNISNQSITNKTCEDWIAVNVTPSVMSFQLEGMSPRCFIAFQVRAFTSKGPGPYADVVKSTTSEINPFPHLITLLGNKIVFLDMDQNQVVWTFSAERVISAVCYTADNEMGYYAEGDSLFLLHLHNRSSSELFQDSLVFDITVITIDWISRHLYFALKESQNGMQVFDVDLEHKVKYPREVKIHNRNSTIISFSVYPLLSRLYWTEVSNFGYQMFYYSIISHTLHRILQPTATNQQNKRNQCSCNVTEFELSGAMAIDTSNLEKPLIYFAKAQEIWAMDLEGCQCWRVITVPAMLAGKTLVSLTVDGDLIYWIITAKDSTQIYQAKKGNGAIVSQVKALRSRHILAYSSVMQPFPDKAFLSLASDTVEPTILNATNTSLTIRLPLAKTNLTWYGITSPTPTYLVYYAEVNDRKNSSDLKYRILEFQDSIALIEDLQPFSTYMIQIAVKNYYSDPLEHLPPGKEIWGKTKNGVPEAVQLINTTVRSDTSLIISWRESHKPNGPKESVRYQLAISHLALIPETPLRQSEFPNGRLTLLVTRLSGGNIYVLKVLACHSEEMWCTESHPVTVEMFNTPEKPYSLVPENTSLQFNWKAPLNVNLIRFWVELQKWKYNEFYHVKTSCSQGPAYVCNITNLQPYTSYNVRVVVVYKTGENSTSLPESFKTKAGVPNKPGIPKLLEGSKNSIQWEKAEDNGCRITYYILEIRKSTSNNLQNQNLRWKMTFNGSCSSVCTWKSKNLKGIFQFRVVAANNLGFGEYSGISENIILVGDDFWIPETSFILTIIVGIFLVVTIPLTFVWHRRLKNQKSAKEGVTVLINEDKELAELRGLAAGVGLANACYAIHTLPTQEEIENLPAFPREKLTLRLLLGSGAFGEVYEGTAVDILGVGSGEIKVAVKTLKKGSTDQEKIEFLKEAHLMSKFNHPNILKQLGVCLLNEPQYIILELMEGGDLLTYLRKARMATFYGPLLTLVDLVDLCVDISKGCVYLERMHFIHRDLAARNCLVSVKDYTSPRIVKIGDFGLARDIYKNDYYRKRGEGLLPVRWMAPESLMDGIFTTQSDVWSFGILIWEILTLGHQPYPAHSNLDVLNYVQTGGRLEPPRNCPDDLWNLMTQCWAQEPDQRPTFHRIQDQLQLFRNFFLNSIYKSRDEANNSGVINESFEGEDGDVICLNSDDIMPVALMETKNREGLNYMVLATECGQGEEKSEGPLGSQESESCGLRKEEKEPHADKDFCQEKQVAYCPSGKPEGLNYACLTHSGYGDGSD

[19] = molecular target: T19, Aurora B (Homo sapiens, UniProt Q96GD4); assay: HotSpot kinase assay; type: biochemical; settings: read-out: % Enzyme Activity (relative to DMSO controls)
T19 construct: purchased Reaction Biology Corporation

[20] = molecular target: T20, MRCKa/CDC42BPA (Homo sapiens, UniProt Q5VT25); assay: HotSpot kinase assay; type: biochemical; settings: read-out: % Enzyme Activity (relative to DMSO controls)
T20 construct: purchased Reaction Biology Corporation
T20 sequence (Q5VT25 whole entry): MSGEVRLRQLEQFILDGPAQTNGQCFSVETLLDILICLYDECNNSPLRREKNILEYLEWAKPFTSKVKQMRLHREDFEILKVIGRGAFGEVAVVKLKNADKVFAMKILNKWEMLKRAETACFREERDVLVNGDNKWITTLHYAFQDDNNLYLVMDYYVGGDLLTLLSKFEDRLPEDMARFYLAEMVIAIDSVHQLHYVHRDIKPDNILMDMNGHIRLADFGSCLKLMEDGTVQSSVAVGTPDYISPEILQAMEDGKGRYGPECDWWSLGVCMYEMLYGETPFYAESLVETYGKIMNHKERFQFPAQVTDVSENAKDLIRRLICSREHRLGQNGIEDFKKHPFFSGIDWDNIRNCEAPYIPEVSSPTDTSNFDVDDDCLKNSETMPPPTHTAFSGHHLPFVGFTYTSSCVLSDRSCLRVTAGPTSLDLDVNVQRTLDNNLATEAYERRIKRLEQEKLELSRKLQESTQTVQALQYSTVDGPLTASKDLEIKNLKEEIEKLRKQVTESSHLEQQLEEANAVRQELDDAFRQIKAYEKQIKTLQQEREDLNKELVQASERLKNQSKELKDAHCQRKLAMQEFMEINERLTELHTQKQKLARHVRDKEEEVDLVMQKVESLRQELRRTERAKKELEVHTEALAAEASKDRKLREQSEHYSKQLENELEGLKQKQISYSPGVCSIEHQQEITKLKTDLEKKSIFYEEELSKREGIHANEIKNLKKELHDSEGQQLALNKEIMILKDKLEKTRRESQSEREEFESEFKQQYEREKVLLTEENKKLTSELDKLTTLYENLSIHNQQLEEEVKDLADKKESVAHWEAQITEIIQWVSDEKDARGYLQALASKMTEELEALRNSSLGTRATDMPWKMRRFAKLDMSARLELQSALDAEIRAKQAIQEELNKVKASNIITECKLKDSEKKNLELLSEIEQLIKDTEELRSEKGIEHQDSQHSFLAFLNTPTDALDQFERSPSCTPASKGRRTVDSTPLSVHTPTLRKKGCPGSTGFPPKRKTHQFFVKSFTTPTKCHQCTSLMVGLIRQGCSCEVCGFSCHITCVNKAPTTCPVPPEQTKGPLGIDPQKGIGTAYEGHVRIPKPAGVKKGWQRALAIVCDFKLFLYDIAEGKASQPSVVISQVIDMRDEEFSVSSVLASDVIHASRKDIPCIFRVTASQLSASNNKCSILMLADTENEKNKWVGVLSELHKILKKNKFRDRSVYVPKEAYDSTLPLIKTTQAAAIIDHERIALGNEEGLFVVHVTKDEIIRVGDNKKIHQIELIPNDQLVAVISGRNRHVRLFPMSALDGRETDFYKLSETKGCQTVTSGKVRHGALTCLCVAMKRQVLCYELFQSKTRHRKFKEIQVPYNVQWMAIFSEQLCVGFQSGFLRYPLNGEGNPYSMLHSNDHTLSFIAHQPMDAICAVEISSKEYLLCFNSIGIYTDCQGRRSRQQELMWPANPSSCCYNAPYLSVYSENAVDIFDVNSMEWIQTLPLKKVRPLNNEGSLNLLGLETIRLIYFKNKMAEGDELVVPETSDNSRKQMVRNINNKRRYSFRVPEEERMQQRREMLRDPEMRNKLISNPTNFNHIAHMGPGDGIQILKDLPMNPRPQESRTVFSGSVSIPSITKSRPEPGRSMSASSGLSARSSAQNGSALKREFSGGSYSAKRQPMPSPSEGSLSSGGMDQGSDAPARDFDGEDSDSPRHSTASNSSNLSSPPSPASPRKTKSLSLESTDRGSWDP

[21] = molecular target: T21, TNK1 (Homo sapiens, UniProt Q13470); assay: HotSpot kinase assay; type: biochemical; settings: read-out: % Enzyme Activity (relative to DMSO controls)
T21 construct: purchased Reaction Biology Corporation

[22] = molecular target: T22, TNIK (Homo sapiens, UniProt Q9UKE5); assay: HotSpot kinase assay; type: biochemical; settings: read-out: % Enzyme Activity (relative to DMSO controls)
T22 construct: purchased Reaction Biology Corporation

[23] = molecular target: T23, KSR2 (Homo sapiens, UniProt Q6VAB6); assay: biochemical; settings: read-out: % Enzyme Activity (relative to DMSO controls)
T23 construct: purchased Reaction Biology Corporation

[24] = molecular target: T24, FMS (Homo sapiens, UniProt P07333); assay: HotSpot kinase assay; type: biochemical; settings: read-out: % Enzyme Activity (relative to DMSO controls)
T24 construct: purchased Reaction Biology Corporation

[25] = tested on: PLSCR1; type: cell-based, monkey; settings: 30 min; drugs 10 μM, immunoglobulins 10 μg/ml
[26] = molecular target: T25, AURORA C (Homo sapiens, UniProt Q9UQB9); assay: HotSpot kinase assay; type: biochemical; settings: read-out: % Enzyme Activity (relative to DMSO controls)
T25 construct: purchased Reaction Biology Corporation

[27] = molecular target: T26, PYK2 (Homo sapiens, UniProt Q14289); assay: HotSpot kinase assay; type: biochemical; settings: read-out: % Enzyme Activity (relative to DMSO controls)
T26 construct: purchased Reaction Biology Corporation

[28] = molecular target: T27, PKA (Homo sapiens, UniProt P17612); assay: HotSpot kinase assay; type: biochemical
T27 construct: purchased Reaction Biology Corporation

[29] = molecular target: T28, MYLK3 (Homo sapiens, UniProt Q32MK0); assay: HotSpot kinase assay; type: biochemical; settings: read-out: % Enzyme Activity (relative to DMSO controls)
T28 construct: purchased Reaction Biology Corporation

[30] = tested on: VSV-S; type: cell-based, VSV pseudotyped with SARS-CoV-2 spike
[31] = molecular target: T29, MLCK2/MYLK2 (Homo sapiens, UniProt Q9H1R3); assay: HotSpot kinase assay; type: biochemical; settings: read-out: % Enzyme Activity (relative to DMSO controls)
T29 construct: purchased Reaction Biology Corporation

[32] = read-out: % Enzyme Activity (relative to DMSO controls), 10µM

`CO[C@@H]1[C@H](N(C)C(=O)CCC(=O)NCc2cn(CCCS(=O)(=O)O)nn2)C[C@H]2O[C@]1(C)n1c3ccccc3c3c4c(c5c6ccccc6n2c5c31)C(=O)NC4` [CIMSS] gave a remaining activity at 10 µM [1] of 69.9%, a remaining activity at 10 µM [2] of 1.86% and a remaining activity at 10 µM [3] of 0.77%. The remaining activity at 10 µM [4] was 28.5%, the remaining activity at 10 µM [5] was 33.4% and the remaining activity at 10 µM [6] was 8.36%. For the same compound, the remaining activity at 10 µM [7] was 8.97%, the remaining activity at 10 µM [8] was 3.03% and the remaining activity at 10 µM [9] was 1.97%. For the same compound, the remaining activity at 10 µM [10] was 74.7%, the remaining activity at 10 µM [11] was 52.7% and the remaining activity at 10 µM [12] was 1.11%. It also gave a remaining activity at 10 µM [13] of 7.56%, a remaining activity at 10 µM [14] of 88.3% and a remaining activity at 10 µM [15] of 17.1%. For the same compound, the remaining activity at 10 µM [16] was 19.6%, the IC50 ([17]; Supplementary Table 1, Insulin Receptor, read-out: IC50 (Molar concentration)) was 803 nM and the remaining activity at 10 µM [17, 32] was 15.8%. For the same compound, the remaining activity at 10 µM [18] was 4.57%, the remaining activity at 10 µM [19] was 2.85% and the remaining activity at 10 µM [20] was 71.3%. For the same compound, the remaining activity at 10 µM [21] was 3.88%, the remaining activity at 10 µM [22] was 1.22% and the remaining activity at 10 µM [23] was 108%. The remaining activity at 10 µM [24] was 0.52%, the “Phosphorylation of PLSCR1” value [25] was “preserved” and the remaining activity at 10 µM [26] was 2.59%. The remaining activity at 10 µM [27] was 2.4%, the IC50 ([28]; Supplementary Table 1, read-out: IC50 (Molar concentration)) was 42.3 nM and the remaining activity at 10 µM [28, 32] was 6.32%. The remaining activity at 10 µM [29] was 67.6%, the VSV-S infection [30] was “inhibited” and the remaining activity at 10 µM [31] was 27.3%.
